Tests used:
[1] = tested on: cannabimimetic activity; settings: cited from earlier work
[2] = tested on: Rat brain NMDA receptors; assay: Blockade of NMDA response in Xenopus oocytes injected with rat brain RNA; assay type: biochemical
Source text: Blockade of NMDA-induced voltage changes in Xenopus oocytes: Frog oocytes can be injected with genetic material from various species and organs, resulting in the expression of the various molecules encoded by this material in the oocyte. Injection of rat brain RNA provides active NMDA receptors on the ooctye surface. Application of NMDA results in changes in the electrical activity recorded from the oocytes. Various NMDA antagonists block the NMDA-induced changes in electrical activity and their potency and dose dependence in this system indicate their potency and mode of action as NMDA antagonists.
The oocyte is the most widely used system for studying the molecular, biophysical and pharmacological properties of expressed voltage- or transmitter-operated ion channels. This giant cell offers several advantages for this type of studies. It can be readily used for two-electrode voltage clamp studies, translates injected mRNA from different sources and functionally expresses the translated proteins, and it is also readily amenable for intracellular micron injections. Importantly, the recordings of neurotransmitter- or voltage-induced currents in a single oocyte are extremely stable and can performed repeatedly for 2-3 hours; this allows the performance of a full dose-response relation in single oocytes.
Rat brain NMDA receptors were expressed in Xenopus oocytes injected with total rat brain RNA. Dascal and Lotan. The conditions for injection culture and electrical recording from oocytes were as described by Dascal and Lotan (in: Methods in Molecular Biology, Longstaff and Revest, eds. Vol. 13, Chapter 13, Humana Press, N.J., 1992).
Briefly, female Xenopus were anesthetized by immersion in water containing 0.15% tricaine methanesulfonate and a small incision was made in the lower abdomen. Ovary fragments were removed into ND-96.
The oocytes were defolliculated by the collagenase treatment in order to remove the follicle cell layer. Defolliculated oocytes were injected with total rat brain RNA and incubated for 2-4 days at 22° C. in sterile NDE-96 solution. ND-96 solution contains (in mM): NaCl - 96, KCl - 2, CaCl2 - 1.8, Hepes - 5 (pH=7.4-7.6). NDE-96 contains in addition, 2.5 mM sodium pyruvate, 100 unit/ml penicillin, 100 μg/ml streptomycin. A single oocyte was placed in a 1 ml bath constantly superfused with ND-96 solution at room temperature. The cell was impaled with two microelectrodes and held at membrane potential of -60 mV using voltage clamp circuit.
RNA was extracted from the brain of 14-day old rat brain. Each oocyte was injected with 50 nl total RNA (4-8 mg/ml in water, stored at -80° C. in […] aliquots).
NMDA receptors were activated by application of NMDA with glycine in Mg-free ND-96 solution. It was shown previously and also observed in this study that the entry of calcium ions through the NMDA receptor-channel evokes a Ca-dependent Cl^- current which appeared as an early inward current peak preceding and overlapping the actual NMDA response and hindering a quantitative pharmacological study of NMDA antagonists. Experimental conditions were therefore worked out aimed at eliminating the Cl^- current. The best protocol employed the use of Ca-free, Ba-containing solution, avoiding repetitive application of antagonists, as well as other conditions including optimal perfusion rate and optimal intervals between repetitive NMDA applications.
Several NMDA receptor blockers were tested. These compounds have […] and have to be dissolved in 100% dimethyl sulfoxide (DMSO) and diluted for use in ND-96 that contained 1% DMSO. Therefore, the effect of 1% DMSO on the response to 10^-4 M NMDA and 5×10^-6 M glycine was examined. DMSO had no effect on NMDA response in three different cells.
Eight putative NMDA antagonists of the HU group, including 270, 271 and 259 were tested for anti-NMDA activity at a glutamate receptor. […]

[3] = tested on: AMPA/kainate receptors; assay: Effect on kainate responses in oocytes; assay type: biochemical, rat
[4] = tested on: NMDA-induced tremor, seizures and lethality in mice; settings: Feigenbaum et al. 1989; cited from earlier work
[5] = tested on: voltage-dependent P-type calcium channels; assay: Inhibition of voltage-dependent P-type calcium channels expressed in oocytes; assay type: biochemical, rat
[6] = tested on: GABA receptors; assay: Effect on GABA responses in oocytes; assay type: biochemical, rat
[7] = tested on: CA1 hippocampal region in gerbils; settings: injected after the ischemic insult; Bar-Joseph et al. 1993; cited from earlier work
[8] = tested on: closed head injury, a model of head trauma; settings: Shohami et al. 1993; cited from earlier work
[9] = tested on: cannabinoid receptors; settings: Devane et al. 1992; cited from earlier work
[10] = tested on: intraocular pressure (IOP); assay: Ocular hypotensive activity (intraocular pressure) in albino rabbits; assay type: in vivo, albino rabbit; settings: for Max ΔIOP: ** drug vs. vehicle P < 0.01
Description: Bicyclic compounds of the present invention were also tested for IOP lowering effects.
Sci., 82, 1069-1079 (1993).
The phospholipids and HU-259 were dissolved in the stabilized oily phase. The other excipients were dissolved in the aqueous phase. Both phases were heated separately to 70° C. and dispersed by a magnetic stirrer. Emulsification was completed using a "high speed mixer" for 5 min at 85° C. The resulting emulsion was cooled rapidly below 20° C. and homogenized using a two-stage homogenizing valve assembly (Gaulin Homogenizer, APV Gaulin, Hilversum, The Netherlands) for 5 min. All the manufacturing procedures were carried out under aseptic conditions and a nitrogen atmosphere. The pH was adjusted to 7.4 using a sodium hydroxide solution (10%). The final fine emulsion was filtered to achieve sterility and stored in ampoules. A typical formulation (%, w/w) consisted of the following: HU-259, 0.2%; oily phase, 20.0%; purified fractionated egg phospholipids, 1.2%; nonionic emulsifier, 2%; glycerin, 2.25%; α-tocopherol, 0.02%; methyl and butyl p-hydroxy- benzoic ester, 0.3 and 0.075%, respectively; and water for injection, to 100.0 g. The control emulsion vehicle was prepared using identical experimental conditions but without drug.
IOP was measured by using a pneumatonometer (Digilab T30). Pressure readings were calibrated for verification every 6 h. One drop (50 μl) of local anesthetic (Benoxinate HCl, 0.4% Fischer [Isr] diluted 1:3 with sterile saline) was instilled into each eye prior to IOP measurements.

[11] = tested on: NMDA receptor linked ion channel; settings: Nadler et al. 1993; cited from earlier work
[12] = tested on: intraocular pressure (IOP); settings: in vivo; cited from earlier work
[13] = target: MK-801 sites located at the NMDA receptor ion channel; assay: Inhibition of [3H]MK-801 binding to rat forebrain membranes
Source text: Binding to the NMDA receptor linked channel: Non competitive antagonists of NMDA, the primary example of which is the compound MK-801, bind to a site within the NMDA receptor channel thus preventing the activation of the receptor-channel complex and the consequent neurotoxicity. The ability of various compounds to compete with the binding of tritium labeled MK-801 to brain membranes is considered a measure of their potency as NMDA non-competitive antagonists.
The association of pinene derivatives with acetylcholine-muscarinic receptor and with MK-801 sites located at the NMDA receptor ion channel.
Inhibition of ^3 [H]MK-801 binding to rat forebrain membranes by the test HU-211 compounds was carried out as described for HU-211 in Eshhar et al., NeuroReport 5, No. 3, 1993) (Methods section). The test compounds were solubilized in a mixture of ethanol:Emulfor:water (20:3:57).

[14] = tested on: rat brain cortical membrane preparations; settings: cited from earlier work
[15] = tested on: acetylcholine-muscarinic receptor; assay type: binding, rat; settings: 100 μM analogue
[16] = tested on: NMDA toxicity in mice; assay: Prevention of NMDA neurotoxicity in mice (neurological scores); assay type: in vivo, mice (Balb/C); settings: for maximum improvement of neurological scores: NMDA 60 mg/kg s.c., i.p. or i.v. pretreatment; for neurological scores/symptoms after NMDA toxicity: pretreated mice
Source text: Blockade of NMDA toxicity in mice: Subcutaneous injection of NMDA in mice results in a dose-dependent increase in the number, severity and duration of several neurological symptoms, culminating in death at the higher dose range. The symptoms include tail flicks, circling, tremor and convulsions. The ability of various compounds, when administered to mice prior to NMDA, to reduce the number and severity of these symptoms is a considered a measure of their potency in preventing NMDA behavioral toxicity in vivo.
Test drugs were administered intraperitoneally at the stipulated doses in a solution of MCT oil. Each point represents the mean scores of eight mice treated with the drug compared to the same number of control animals receiving the vehicle alone.
Test compounds were administered at a standard dose of 10 mg/kg either intraperitoneally (in MCT oil) or intravenously (in a submicronized emulsion).
(§1) Bicyclic compounds of the present invention were tested for their ability to block NMDA toxicity in mice. Balb/C mice received NMDA by subcutaneous injection at a dose of 60 mg/kg which was determined to be the LD20 dose of this substance. Thirty minutes prior to injection of the neurotoxin the animals received either (a) an intravenous injection of the test drug formulated in submicronized emulsion as described in Example 11); (b) an intraperitoneal injection of the test drug dissolved in MCT oil; (c) or the appropriate vehicle alone (control groups). The improvement rate afforded by the test drug was defined as the difference between scores of animals receiving the formulated drug and those receiving the vehicle alone. The doses tested for HU-254, HU-259 and HU-260 ranged from 5 to 30 mg/kg.
At least 6-8 mice were included per test group. The materials were tested in a masked study to preclude bias of the observer of clinical symptoms.
The behavioral scoring method (tabulated above) was used as the basic quantitative procedure for evaluating the level of NMDA or kainic acid neurotoxicity in mice. The neurological clinical status of each animal was calculated by totalling the scores of all signs that were evident throughout the study. Duration of symptoms was also taken into account.
If duration of a neurological system is up to 30 seconds, the score is s-1. Duration between 0.5-3.0 mins, the score is s. Duration longer than 3 mins, the score is s+1.

[17] = tested on: Balb/C mice; assay: Lethality of subcutaneous NMDA in mice; assay type: in vivo; settings: subcutaneous injection
Description: as §1

## CCCCCCC(C)(C)c1ccc([C@@H]2C[C@H](O)CC[C@H]2CCCO)c(O)c1 [CP-55940]
[1]
  cannabimimetic activity: found to produce cannabimimetic effects

## CCCCCCC(C)(C)c1cc(O)c2c(c1)OC(C)(C)[C@@H]1CC=C(CO)C[C@@H]21 [HU-210, 1,1 dimethylheptyl (DMH) homolog of [3R,4R]-7-hydroxy Δ^6 THC, reference compound]
[1]
  cannabimimetic activity: two orders of magnitude higher than the natural Δ^1 THC
[2]; 10 μM
  % inhibition of NMDA: 0%
[2]; concentrations up to 10 μM
  inhibitory effects on NMDA response: did not have any inhibitory effects

## CCCCCCC(C)(C)c1cc(O)c2c(c1)OC(C)(C)[C@H]1CC=C(CO)C[C@H]21 [HU-211, 7-hydroxy-Δ^6-tetrahydrocannabinol 1,1-dimethylheptyl, reference compound]
[3]
  effect on kainate responses: no effect
[4]
  block of NMDA-induced tremor, seizures and lethality: block NMDA-induced tremor, seizures and lethality in mice
[5]
  inhibition of activity of voltage-dependent P-type calcium channels: did not inhibit
[6]
  effect on GABA responses: no effect
[7]
  neuronal cell damage in CA1 hippocampal region: prevent neuronal cell damage
[1]
  cannabimimetic activity: inactive as a cannabimimetic
[8]
  extent of edema formation and overall neurological damage: significantly reduced
[9]
  affinity to the cannabinoid receptors: very low affinity
[10]; contralateral eye
  AUC (from instillation of treatment until return to baseline IOP): -4.9 ± 7.0 mmHg × hrs
  Max ΔIOP: -2.0 ± 1.1 mmHg
[10]; treated eye
  AUC (from instillation of treatment until return to baseline IOP): -9.5 ± 6.0 mmHg × hrs
[10]; treated eye, single dose 0.2% emulsion
  Max ΔIOP: -2.9 ± 0.7 mmHg
[11]
  NMDA induced uptake of 45Ca++ ions: block the NMDA induced uptake
[2]; 1 μM
  % inhibition of NMDA: 32%
[2]; 10 μM
  % inhibition of NMDA: 47%
[2]; Lineweaver-Burke analysis
  mode of NMDA antagonism: non-competitive NMDA antagonists
[2]; NMDA response
  concentration at which inhibitory activity was first apparent: 10 nM
[12]
  lowering of intraocular pressure: lowering of intraocular pressure (IOP)
[13]; [3H]MK801 binding, rat forebrain membranes, representative experiment in triplicate (HU259), read-out: inhibition constant (K1)
  Ki: 11.3 µM
[14]
  increase in binding of [3H]TCP induced by polyamines, glutamate or glycine: blocked the increase in binding

## CCCCCCC(C)(C)c1cc(OC(C)=O)c([C@H]2C=C(COC(C)=O)[C@H]3C[C@@H]2C3(C)C)c(OC(C)=O)c1 [HU-254]
[15]
  % inhibition of tritiated ligand binding to membranes, 3[H]QNB: 96.1%
[16]
  maximum improvement of neurological scores: 30-40%
  neurological scores/symptoms after NMDA toxicity: improvement in neurological scores
[16]; i.p. dose of 20 mg/kg
  maximum improvement rate on the neurological scores: 25%
[16]; i.v. vs i.p.
  effect of route of administration on performance: significantly enhanced by i.v. administration
[13]; 100 μM analogue
  % inhibition of tritiated ligand binding to membranes, 3[H]-MK-801: 5.3%

## CCCCCCC(C)(C)c1cc(OC(C)=O)c([C@H]2C=C(CO)[C@H]3C[C@@H]2C3(C)C)c(OC(C)=O)c1 [HU-260]
[16]
  maximum improvement of neurological scores: 30-40%
  neurological scores/symptoms after NMDA toxicity: improvement in neurological scores

## CN[C@H](CC(=O)O)C(=O)O [NMDA, N-methyl-D-aspartate]
[17]
  LD20 dose: 60 mg/kg

## COc1ccc(C(=O)c2c(C)n(CCN3CCOCC3)c3ccccc23)cc1 [pravadoline]
[1]
  cannabimimetic activity: found to produce cannabimimetic effects
